Measured values: article PMC7026080, “Phenotypic high-throughput screening platform identifies novel chemotypes for necroptosis inhibition” (Cell Death Discovery, 2020)
Values after ≈ are worked out from the molar mass of the structure shown. Read-outs that look alike come from different tables or passages of the source.

Key:
[1] = Rat hepatic clearance (in vitro); type: in vitro ADME
[2] = system: Jurkat FADD-/- cells; assay: Necroptosis inhibition in Jurkat FADD-/- cells + TNF-α, 8 h, AK release; type: cell-based; details: Homo sapiens
Description: The second screening step aimed to determine the EC50 of selected compounds. L929 and Jurkat FADD^-/- cells were co-incubated with TNF-α and test compounds at 10-point concentration range (0.004–100 μM) for 8 h. Compound-mediated inhibition of necroptosis was assessed through AK release and the EC50 calculated. Jurkat cells were used to validate results in human cells. […] In HTS step two, 4374 compounds (3353 hits from HTS step one plus 1021 near neighbours) were evaluated for potency by dose-response curves. From those, 1,438 hit compounds passed the selection criteria on both cell lines, corresponding to a […] hit rate.
L929 cells were co-incubated for 8 h with mTNF-α and test compounds at 31.7 μM after which AK release was measured. […] Hit compounds were then evaluated for apoptosis modulation. Further details are provided as Supplementary Information.
Cell treatments and viability assays. Cells were seeded in 384- or 96-well plates at 1000 or 8000 cells/well (in 12.5 μL or 100 μL final volume), respectively, using a Multidrop^TM Combi Reagent Dispenser (ThermoFisher Scientific). For inducing necroptosis, L929 and Jurkat FADD^-/- cells were incubated with 10 ng/mL mTNF-α and hTNF-α respectively; BV2 cells with 25 µM Z-VAD-FMK, and HT29 cells with 20 ng/mL hTNF-α, 250 nM Smac mimetic BV6 and 10 μM Z-VAD-FMK. Cells were co-incubated in the presence of test compounds at target concentrations for 8 or 24 h. Nec-1 at 29.2 μM was used as positive control. For apoptosis assays, Jurkat E6.1 cells were co-incubated with 0.5 μg/mL CHX and test compounds at target concentrations for 8 h. […]
Adenylate kinase (AK) and lactate dehydrogenase (LDH) release from damaged cells were measured using the Toxilight BioAssay Kit (Lonza, Basel, Switzerland) and the Cytotoxicity Detection Kit (Roche Diagnostics GmbH, Mannheim, Germany), respectively. Adenosine triphosphate (ATP) metabolism was evaluated using CellTiter-Glo^TM Luminescent Cell Viability Assay (Promega, Madison, WI, USA). Apoptosis was determined by the measurement of caspase-3/-7 activity using the Caspase-Glo® 3/7 Assay (Promega) according to the manufacturer’s instructions. Cellular metabolic activity was measured using CellTiter 96® Aqueous Non-Radioactive Cell Proliferation (MTS) Assay (Promega). Luminescence signal was recorded using a GloMax®-MultiDetection System (Promega) and absorbance with a Model 680 microplate reader (Bio-Rad Laboratories Inc, Hercules, CA, USA).
Primary high-throughput screen. […] Eight hours after co-incubation of L929 cells with mTNF-α and test compounds, AK release was evaluated. […] Eight hours after co-incubation of L929 or Jurkat FADD^-/- cells with TNF-α and test compounds, AK release was evaluated. […]

[3] = Aqueous solubility; type: physicochemical; details: read-out: Aqueous solubility, concentration
[4] = system: MDR1; assay: MDCK-MDR1 cell-based permeability assay; type: in vitro ADME; details: dog
[5] = system: necroptosis proteins in liver tissue; assay: p-MLKL/MLKL and p-RIPK3/RIPK3 immunoblot in liver tissue of SIRS mice; type: in vivo, mouse; details: compared with mTNF-α alone; 5 mg/kg i.v.
Description: Representative blots and quantification of p-RIPK3/RIPK3 and p-MLKL/MLKL ratios in fold-change from control. Blots were normalized to endogenous β-actin.
Further details are provided as Supplementary Information.
Animal studies, injections and monitoring. Male C57BL/6J mice with 18-26 g (Charles River Laboratories International, Inc., Wilmington, MA, USA) were used at the age of 8-14 weeks. Five to seven animals were included in each experimental group. All animal experiments were carried out with the permission of local animal ethical committee in accordance with the EU Directive (2010/63/EU), Portuguese laws (DL113/2013, 2880/2015, 260/2016) and all relevant legislations. Animals received humane care in a temperature-controlled environment with a 12 h light-dark cycle and ad libitum access to pelleted chow and water, complying with the Institute’s guidelines, and as outlined in the “Guide for the Care and Use of Laboratory Animals” prepared by the National Academy of Sciences and published by the National Institutes of Health (NIH publication 86-23 revised 1985). […] Nec-1 was diluted as follows (v/v): 48% PBS 1X, 17% DMSO and 35% PEG 400. […] All injections were administered intravenously (i.v.) in 100 µL volume each.

[6] = 8 h, screening step 2, AK release, read-out: EC50 Jurkat FADD(-/-) + TNF-α (in vitro)
[7] = read-out: Jurkat FADD (-/-) (in vitro) pEC50 (converted)

SMILES	Rat hepatic clearance (in vitro) rate [1] [μL/min/1E6]	EC50 [2, 6] [nM]	EC50 [2, 7] [nM]	solubility ([3]; aqueous medium (not further specified)) [µM]	efflux ratio [4]	p-MLKL/MLKL ratio in mouse liver tissue [5]	p-RIPK3/RIPK3 ratio in mouse liver tissue [5]	solubility [3] [µM]
O=C(c1cnn(Cc2ccccc2)c1)N1CCOc2ccccc2C1 [SN-6109]	87	630	631	47 (≈ 15.7 µg/mL)	–	–	–	–
CN1C(=O)C(Cc2c[nH]c3ccccc23)NC1=S (stereo not shown) [Nec-1, necrostatin-1]	–	390	398	–	0.45	decreased	decreased	97 (≈ 25.2 µg/mL)
